Test results as given in the supplement of paper PMC8612539.
Values after ≈ are worked out from the molar mass of the structure shown.

Columns and labels:
[1] = tested on: Enterococcus spp.; assay: minimum inhibitory concentration (MIC)
Description: (§1)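 Broth microdilution MIC (Sensititre BOPO7F bovine plate, CLSI methods) of 19 antimicrobials against field isolates of P. multocida, M. haemolytica, H. somni (deep nasopharyngeal swabs) and E. coli, Enterococcus spp. (rectal swabs) from weaned dairy heifers. Incubation 16-24 h at 35 C. MIC is the lowest concentration preventing visible growth. Values with <= or > lie at the tested range limits. Trimethoprim-sulfamethoxazole is given as the trimethoprim component of a 1:19 mixture.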

[2] = tested on: Mannheimia haemolytica; assay: minimum inhibitory concentration (MIC)
Description: as §1

CCN1CCN(c2cc3c(cc2F)c(=O)c(C(=O)O)cn3C2CC2)CC1 [Enrofloxacin]
minimum inhibitory concentration [µg/mL]
Settings | [1] | [2]
isolate (source animal id): 2 | 0.25 (≈ 0.696 µM) | –
isolate (source animal id): 8 | – | 0.5 (≈ 1.39 µM)
isolate (source animal id): 13 | – | 0.5 (≈ 1.39 µM)
isolate (source animal id): 18 | – | 0.5 (≈ 1.39 µM)
isolate (source animal id): 21 | – | 0.5 (≈ 1.39 µM)
isolate (source animal id): 25 | – | 0.5 (≈ 1.39 µM)
isolate (source animal id): 27 | – | 0.5 (≈ 1.39 µM)
isolate (source animal id): 28 | – | 1 (≈ 2.78 µM)
isolate (source animal id): 30 | – | 0.5 (≈ 1.39 µM)
isolate (source animal id): 31 | – | 1 (≈ 2.78 µM)
isolate (source animal id): 32 | – | 0.25 (≈ 0.696 µM)
isolate (source animal id): 34 | – | 0.5 (≈ 1.39 µM)
isolate (source animal id): 35 | > 2 | –
isolate (source animal id): 36 | – | 0.5 (≈ 1.39 µM)
isolate (source animal id): 37 | – | 1 (≈ 2.78 µM)
isolate (source animal id): 40 | – | 0.5 (≈ 1.39 µM)
isolate (source animal id): 41 | – | 0.5 (≈ 1.39 µM)
isolate (source animal id): 42 | 0.5 (≈ 1.39 µM) | –
isolate (source animal id): 43 | – | 0.5 (≈ 1.39 µM)
isolate (source animal id): 44 | 0.5 (≈ 1.39 µM) | –
isolate (source animal id): 46 | – | 0.5 (≈ 1.39 µM)
isolate (source animal id): 49 | – | 0.5 (≈ 1.39 µM)
isolate (source animal id): 50 | – | 0.5 (≈ 1.39 µM)
isolate (source animal id): 51 | – | 0.5 (≈ 1.39 µM)
isolate (source animal id): 52 | – | 0.5 (≈ 1.39 µM)
isolate (source animal id): 53 | – | 0.5 (≈ 1.39 µM)
isolate (source animal id): 55 | – | 0.5 (≈ 1.39 µM)
isolate (source animal id): 56 | – | 0.5 (≈ 1.39 µM)
isolate (source animal id): 57 | – | > 2
isolate (source animal id): 79 | 1 (≈ 2.78 µM) | –
isolate (source animal id): 88 | 0.25 (≈ 0.696 µM) | –
isolate (source animal id): 91 | 0.25 (≈ 0.696 µM) | –
isolate (source animal id): 92 | 1 (≈ 2.78 µM) | –
isolate (source animal id): 100 | – | 2 (≈ 5.56 µM)
isolate (source animal id): 103 | – | 0.5 (≈ 1.39 µM)
isolate (source animal id): 107 | – | 0.5 (≈ 1.39 µM)
isolate (source animal id): 108 | – | 0.5 (≈ 1.39 µM)
isolate (source animal id): 111 | 0.25 (≈ 0.696 µM) | –
isolate (source animal id): 112 | – | 0.5 (≈ 1.39 µM)
isolate (source animal id): 113 | – | > 2
isolate (source animal id): 121 | – | 0.5 (≈ 1.39 µM)
isolate (source animal id): 122 | 1 (≈ 2.78 µM) | 0.5 (≈ 1.39 µM)
isolate (source animal id): 123 | 0.5 (≈ 1.39 µM) | > 2
isolate (source animal id): 126 | – | 2 (≈ 5.56 µM)
isolate (source animal id): 133 | 1 (≈ 2.78 µM) | > 2
isolate (source animal id): 135 | – | > 2
isolate (source animal id): 138 | – | 2 (≈ 5.56 µM)
isolate (source animal id): 141 | – | > 2
isolate (source animal id): 142 | – | 1 (≈ 2.78 µM)
isolate (source animal id): 145 | – | 1 (≈ 2.78 µM)
isolate (source animal id): 149 | – | ≤ 0.12
isolate (source animal id): 151 | – | ≤ 0.12
isolate (source animal id): 152 | – | 1 (≈ 2.78 µM)
isolate (source animal id): 154 | – | ≤ 0.12
isolate (source animal id): 158 | 0.5 (≈ 1.39 µM) | –
isolate (source animal id): 159 | – | 1 (≈ 2.78 µM)
isolate (source animal id): 162 | – | 1 (≈ 2.78 µM)
isolate (source animal id): 168 | 0.5 (≈ 1.39 µM) | –
isolate (source animal id): 169 | 0.5 (≈ 1.39 µM) | –
isolate (source animal id): 170 | – | ≤ 0.12
isolate (source animal id): 171 | 0.5 (≈ 1.39 µM) | ≤ 0.12
isolate (source animal id): 172 | – | ≤ 0.12
isolate (source animal id): 173 | – | ≤ 0.12
isolate (source animal id): 175 | 1 (≈ 2.78 µM) | –
isolate (source animal id): 177 | 2 (≈ 5.56 µM) | –
isolate (source animal id): 179 | – | ≤ 0.12
isolate (source animal id): 180 | – | ≤ 0.12
isolate (source animal id): 181 | 0.5 (≈ 1.39 µM) | –
isolate (source animal id): 182 | 0.5 (≈ 1.39 µM) | –
isolate (source animal id): 183 | 0.5 (≈ 1.39 µM) | ≤ 0.12
isolate (source animal id): 186 | – | ≤ 0.12
isolate (source animal id): 187 | 0.5 (≈ 1.39 µM) | ≤ 0.12
isolate (source animal id): 188 | – | ≤ 0.12
isolate (source animal id): 190 | 0.5 (≈ 1.39 µM) | ≤ 0.12
isolate (source animal id): 191 | – | ≤ 0.12
isolate (source animal id): 192 | – | ≤ 0.12
isolate (source animal id): 194 | 0.5 (≈ 1.39 µM) | –
isolate (source animal id): 195 | 0.5 (≈ 1.39 µM) | –
isolate (source animal id): 197 | 0.5 (≈ 1.39 µM) | –
isolate (source animal id): 201 | – | ≤ 0.12
isolate (source animal id): 202 | – | ≤ 0.12
isolate (source animal id): 209 | – | ≤ 0.12
isolate (source animal id): 211 | 0.5 (≈ 1.39 µM) | ≤ 0.12
isolate (source animal id): 214 | 1 (≈ 2.78 µM) | –
isolate (source animal id): 220 | – | ≤ 0.12
isolate (source animal id): 221 | – | ≤ 0.12
isolate (source animal id): 222 | 0.5 (≈ 1.39 µM) | –
isolate (source animal id): 223 | 0.25 (≈ 0.696 µM) | ≤ 0.12
isolate (source animal id): 228 | 0.5 (≈ 1.39 µM) | –
isolate (source animal id): 230 | 0.5 (≈ 1.39 µM) | –
isolate (source animal id): 233 | – | 1 (≈ 2.78 µM)
isolate (source animal id): 235 | 0.5 (≈ 1.39 µM) | –
isolate (source animal id): 236 | 2 (≈ 5.56 µM) | –
isolate (source animal id): 237 | – | 1 (≈ 2.78 µM)
isolate (source animal id): 239 | 2 (≈ 5.56 µM) | –
isolate (source animal id): 241 | 0.5 (≈ 1.39 µM) | 1 (≈ 2.78 µM)
isolate (source animal id): 244 | 0.5 (≈ 1.39 µM) | –
isolate (source animal id): 246 | 0.5 (≈ 1.39 µM) | –
isolate (source animal id): 247 | 0.5 (≈ 1.39 µM) | –
isolate (source animal id): 250 | 0.25 (≈ 0.696 µM) | –
isolate (source animal id): 252 | > 2 | 0.5 (≈ 1.39 µM)
isolate (source animal id): 253 | – | 0.5 (≈ 1.39 µM)
isolate (source animal id): 259 | – | > 2
isolate (source animal id): 260 | – | 0.5 (≈ 1.39 µM)
isolate (source animal id): 262 | – | 1 (≈ 2.78 µM)
isolate (source animal id): 268 | 0.25 (≈ 0.696 µM) | –
isolate (source animal id): 282 | 1 (≈ 2.78 µM) | > 2
isolate (source animal id): 285 | 1 (≈ 2.78 µM) | –
isolate (source animal id): 287 | – | 0.5 (≈ 1.39 µM)
isolate (source animal id): 288 | – | ≤ 0.12
isolate (source animal id): 289 | 0.5 (≈ 1.39 µM) | –
isolate (source animal id): 290 | 0.5 (≈ 1.39 µM) | –
isolate (source animal id): 291 | – | ≤ 0.12
isolate (source animal id): 293 | – | 0.5 (≈ 1.39 µM)
isolate (source animal id): 296 | 0.5 (≈ 1.39 µM) | –
isolate (source animal id): 298 | 0.5 (≈ 1.39 µM) | 0.5 (≈ 1.39 µM)
isolate (source animal id): 299 | – | 0.5 (≈ 1.39 µM)
isolate (source animal id): 300 | – | ≤ 0.12
isolate (source animal id): 301 | 0.5 (≈ 1.39 µM) | –
isolate (source animal id): 302 | – | 0.5 (≈ 1.39 µM)
isolate (source animal id): 304 | – | 0.5 (≈ 1.39 µM)
isolate (source animal id): 306 | – | ≤ 0.12
isolate (source animal id): 308 | – | ≤ 0.12
isolate (source animal id): 309 | – | ≤ 0.12
isolate (source animal id): 310 | 1 (≈ 2.78 µM) | –
isolate (source animal id): 313 | – | 0.5 (≈ 1.39 µM)
isolate (source animal id): 318 | – | 0.25 (≈ 0.696 µM)
isolate (source animal id): 320 | 0.5 (≈ 1.39 µM) | ≤ 0.12
isolate (source animal id): 321 | – | 0.5 (≈ 1.39 µM)
isolate (source animal id): 323 | – | 0.5 (≈ 1.39 µM)
isolate (source animal id): 324 | – | 0.5 (≈ 1.39 µM)
isolate (source animal id): 326 | – | 0.5 (≈ 1.39 µM)
isolate (source animal id): 328 | – | 0.5 (≈ 1.39 µM)
isolate (source animal id): 329 | – | 0.5 (≈ 1.39 µM)
isolate (source animal id): 331 | 0.5 (≈ 1.39 µM) | –
isolate (source animal id): 333 | 0.5 (≈ 1.39 µM) | 0.5 (≈ 1.39 µM)
isolate (source animal id): 335 | – | 0.5 (≈ 1.39 µM)
isolate (source animal id): 338 | – | 0.5 (≈ 1.39 µM)
isolate (source animal id): 341 | > 2 | –
